Results: patent US20090111736A1, “Orally-Absorbed Solid Dose Formulation for Vancomycin” (SRI International, priority 2007, published 2009)
Where “and” joins values, the source holds several entries; their conditions need not be identical. Equal values may be shown once. Where a name gives a salt, the structure may show the parent alone.

Test system: rat jejunum
Experiment: In vitro mucosal-to-serosal vancomycin transport, modified Ussing chambers, jejunum
Assay type: in vitro ADME
Conditions: for Ave. Cumulative Amt VCM Released: jejunum
Source text: We investigated regional variation in permeation of vancomycin (VCM) across various segments of rat intestine and colon in vitro by mounting isolated segments of rat intestine and colon between horizontal modified Ussing chambers. The effects of drug concentration and of addition of a p-glycoprotein inhibitor or permeation enhancer(s) as formulation additives on VCM permeation were also studied in vitro using segments of rat jejunum.
Methods: A modified Ussing system (Easy mount Ussing system, Physiological Instruments Inc., CA, Item # EM-CSYS-8) with eight sets of chambers was used for all in vitro studies; each set consisted of two parallel diffusion chambers, a heating block for temperature control, needle valves for gas flow adjustment and gas mixing, and Ag/AgCl voltage and current electrodes for measuring transepithelial voltage and for passing current.
Harvesting of required small intestinal or colon segments of a male rat was performed using experimental procedures described in the literature (Gotoh et al., J Biomol Screen (2005) 10:517-23). The harvested segments of small intestine or colon were mounted on sliders placed between the two horizontal chambers of a modified Ussing system.
VCM was dissolved in HEPES buffer pH 7.4 (Table 1) previously saturated with 100% O2 or HEPES buffer containing additives selected from permeation enhancer(s) and/or an efflux transport inhibitor (Table 2) to obtain predetermined concentrations of drug and additive(s).
Drug transport across epithelial membranes of harvested rat small intestine and colon segments, in mucosal-to-serosal (M-to-S) direction, was studied using modified Ussing Chambers. Aliquots of HEPES buffer (5 ml) were initially added to both the mucosal and serosal chambers and allowed to equilibrate for 20 minutes. The HEPES buffer in the mucosal chamber was replaced by a study sample containing VCM alone or VCM and selected additive(s) in HEPES buffer, e.g., 5 mg/mL of VCM dissolved in HEPES buffer containing 10% w/w Labrasol®. Aliquots of 0.5 mL buffer solutions were removed periodically from serosal chambers, and replaced with equal volumes of fresh warm (37±2° C.) HEPES buffer previously saturated with 100% O2. […]
Changes in transepithelial short-circuit current (in micro-Amps) and membrane resistance (in Ohms) as a function of time were monitored continuously during in vitro studies to serve as indicators of tissue viability and drug permeability, respectively. The buffer samples from the receptor chambers were analyzed for VCM content on a high pressure liquid chromatograph (HPLC; Hewlett Packard Model 1100 series).
The analysis of VCM samples was performed using a reverse phase gradient HPLC method, with a Hypersil BDS C18 column, 5 μm, 150×4.6 mm., mobile phase consisting of 5 mM potassium phosphate monobasic in water (pH 3) as solvent A and acetonitrile as solvent B at a flow rate of 1 ml/min (Farin et al., J Pharm Biomed Anal (1998) 18:367-72). The eluant was monitored by a UV/diode array detector at 280 nm.
To compare data obtained from different in vitro experiments, the apparent permeability coefficients were calculated using the equation: […]
Where dQ/dt is the linear appearance rate of mass in receiver compartment, C0 is the initial solute concentration in donor compartment, and A is the surface area (Luo et al., Drug Metab Dispos (2002) 30:763-70).

Compound: CN[C@H](CC(C)C)C(=O)N[C@H]1C(=O)N[C@@H](CC(N)=O)C(=O)N[C@H]2C(=O)N[C@H]3C(=O)N[C@H](C(=O)N[C@H](C(=O)O)c4cc(O)cc(O)c4-c4cc3ccc4O)[C@H](O)c3ccc(c(Cl)c3)Oc3cc2cc(c3O[C@@H]2O[C@H](CO)[C@@H](O)[C@H](O)[C@H]2O[C@H]2C[C@](C)(N)[C@H](O)[C@H](C)O2)Oc2ccc(cc2Cl)[C@H]1O [Vancomycin hydrochloride]
- increase in M-to-S transport of VCM (0.15 mM Quinidine added to the serosal chamber): 3 fold
- effect on M-to-S transport of VCM (0.15 mM Quinidine in mucosal chamber): increased M-to-S transport of VCM, but to a lesser extent
- effect on in vitro permeation of VCM (1.0 mM sodium decanoate in mucosal chamber): much greater effect
- effect on in vitro permeation of VCM (1.0 mM sodium decanoate in serosal chamber): minimal effect
- effect on M-to-S transport of VCM (bile salts at 20% w/w in mucosal chamber): greatly enhanced M-to-S transport
- Ave. Cumulative Amt VCM Released (1.0 mM sodium decanoate in mucosal chamber, 0.5 hr): 2.24 ± 3.17 µg
- Ave. Cumulative Amt VCM Released (1.0 mM sodium decanoate in mucosal chamber, 1.0 hr): 4.52 ± 6.39 µg
- Ave. Cumulative Amt VCM Released (1.0 mM sodium decanoate in mucosal chamber, 1.5 hr): 11.11 ± 10.44 µg
- Ave. Cumulative Amt VCM Released (1.0 mM sodium decanoate in mucosal chamber, 2.0 hr): 19.25 ± 14.42 µg
- Ave. Cumulative Amt VCM Released (1.0 mM sodium decanoate in mucosal chamber, 2.5 hr): 34.10 ± 8.84 µg
- Ave. Cumulative Amt VCM Released (1.0 mM sodium decanoate in serosal chamber, 0.5 hr): 0.00 ± 0.00 µg
- Ave. Cumulative Amt VCM Released (1.0 mM sodium decanoate in serosal chamber, 1.0 hr): 0.91 ± 1.28 µg
- Ave. Cumulative Amt VCM Released (1.0 mM sodium decanoate in serosal chamber, 1.5 hr): 3.91 ± 0.70 µg
- Ave. Cumulative Amt VCM Released (1.0 mM sodium decanoate in serosal chamber, 2.0 hr): 6.91 ± 0.41 µg
- Ave. Cumulative Amt VCM Released (1.0 mM sodium decanoate in serosal chamber, 2.5 hr): 10.60 ± 0.28 µg
- Ave. Cumulative Amt VCM Released (5 mg/ml vancomycin in HEPES buffer without enhancer, 0.5 hr, hydrochloride): 0.00 ± 0.00 µg and 0.00 ± 0.0 µg
- Ave. Cumulative Amt VCM Released (5 mg/ml vancomycin in HEPES buffer without enhancer, 1.0 hr): 1.06 ± 0.95 µg
- Ave. Cumulative Amt VCM Released (5 mg/ml vancomycin in HEPES buffer without enhancer, 1.5 hr): 3.73 ± 0.61 µg
- Ave. Cumulative Amt VCM Released (5 mg/ml vancomycin in HEPES buffer without enhancer, 2.0 hr): 6.94 ± 1.07 µg
- Ave. Cumulative Amt VCM Released (5 mg/ml vancomycin in HEPES buffer without enhancer, 2.5 hr): 11.08 ± 1.08 µg
- Ave. Cumulative Amt VCM Released (5 mg/ml, 0.15 mM Quinidine in mucosal chamber, 0.5 hr): 0.00 ± 0.00 µg
- Ave. Cumulative Amt VCM Released (5 mg/ml, 0.15 mM Quinidine in mucosal chamber, 1.0 hr): 1.72 ± 2.44 µg
- Ave. Cumulative Amt VCM Released (5 mg/ml, 0.15 mM Quinidine in mucosal chamber, 1.5 hr): 4.91 ± 3.98 µg
- Ave. Cumulative Amt VCM Released (5 mg/ml, 0.15 mM Quinidine in mucosal chamber, 2.0 hr): 9.00 ± 5.72 µg
- Ave. Cumulative Amt VCM Released (5 mg/ml, 0.15 mM Quinidine in mucosal chamber, 2.5 hr): 14.14 ± 6.95 µg
- Ave. Cumulative Amt VCM Released (5 mg/ml, 0.15 mM Quinidine in serosal chamber, 0.5 hr): 1.87 ± 0.57 µg
- Ave. Cumulative Amt VCM Released (5 mg/ml, 0.15 mM Quinidine in serosal chamber, 1.0 hr): 8.27 ± 3.06 µg
- Ave. Cumulative Amt VCM Released (5 mg/ml, 0.15 mM Quinidine in serosal chamber, 1.5 hr): 16.77 ± 7.45 µg
- Ave. Cumulative Amt VCM Released (5 mg/ml, 0.15 mM Quinidine in serosal chamber, 2.0 hr): 26.75 ± 11.57 µg
- Ave. Cumulative Amt VCM Released (5 mg/ml, 0.15 mM Quinidine in serosal chamber, 2.5 hr): 38.96 ± 12.27 µg
- Ave. Cumulative Amt VCM Released (5 mg/ml, slider area 0.5 cm^2, 20% w/w bile salt, 0.5 hr): 0.00 ± 0.00 µg
- Ave. Cumulative Amt VCM Released (5 mg/ml, slider area 0.5 cm^2, 20% w/w bile salt, 1.0 hr): 5.40 ± 2.26 µg
- Ave. Cumulative Amt VCM Released (5 mg/ml, slider area 0.5 cm^2, 20% w/w bile salt, 1.5 hr): 18.19 ± 7.43 µg
- Ave. Cumulative Amt VCM Released (5 mg/ml, slider area 0.5 cm^2, 20% w/w bile salt, 2.0 hr): 37.58 ± 9.54 µg
- Ave. Cumulative Amt VCM Released (5 mg/ml, slider area 0.5 cm^2, 20% w/w bile salt, 2.5 hr): 66.39 ± 18.91 µg
- Ave. Cumulative Amt VCM Released (5 mg/ml, slider area 0.5 cm^2, No Q (quinidine study), 0.5 hr): 0.00 ± 0.00 µg
- Ave. Cumulative Amt VCM Released (5 mg/ml, slider area 0.5 cm^2, No Q (quinidine study), 1.0 hr): 1.66 ± 0.43 µg
- Ave. Cumulative Amt VCM Released (5 mg/ml, slider area 0.5 cm^2, No Q (quinidine study), 1.5 hr): 4.34 ± 1.57 µg
- Ave. Cumulative Amt VCM Released (5 mg/ml, slider area 0.5 cm^2, No Q (quinidine study), 2.0 hr): 8.73 ± 2.92 µg
- Ave. Cumulative Amt VCM Released (5 mg/ml, slider area 0.5 cm^2, No Q (quinidine study), 2.5 hr): 14.24 ± 4.56 µg
- Ave. Cumulative Amt VCM Released (10 mg/ml in HEPES buffer without enhancer, 0.5 hr): 0.00 ± 0.0 µg
- Ave. Cumulative Amt VCM Released (10 mg/ml in HEPES buffer without enhancer, 1.0 hr): 2.76 ± 0.69 µg
- Ave. Cumulative Amt VCM Released (10 mg/ml in HEPES buffer without enhancer, 1.5 hr): 6.88 ± 0.98 µg
- Ave. Cumulative Amt VCM Released (10 mg/ml in HEPES buffer without enhancer, 2.0 hr): 12.86 ± 1.23 µg
- Ave. Cumulative Amt VCM Released (10 mg/ml in HEPES buffer without enhancer, 2.5 hr): 20.77 ± 1.90 µg
- Ave. Cumulative Amt VCM Released (25 mg/ml in HEPES buffer without enhancer, 0.5 hr): 0.00 ± 0.0 µg
- Ave. Cumulative Amt VCM Released (25 mg/ml in HEPES buffer without enhancer, 1.0 hr): 2.90 ± 1.82 µg
- Ave. Cumulative Amt VCM Released (25 mg/ml in HEPES buffer without enhancer, 1.5 hr): 7.99 ± 5.71 µg
- Ave. Cumulative Amt VCM Released (25 mg/ml in HEPES buffer without enhancer, 2.0 hr): 21.56 ± 3.84 µg
- Ave. Cumulative Amt VCM Released (25 mg/ml in HEPES buffer without enhancer, 2.5 hr): 50.91 ± 6.58 µg
